The source of these data is PMC9146377, “Design and Synthesis of Novel Bis-Imidazolyl Phenyl Butadiyne Derivatives as HCV NS5A Inhibitors” (Pharmaceuticals, 2022).

Structures are written as SMILES. Where two headings read alike, the source gives them in different places. Some results are limits rather than exact numbers.

As usually defined, the EC50 is the concentration giving half of the maximal effect. For orientation: CC50 means the concentration at which the toxic effect on the cells reaches its halfway point. By melting point is commonly meant the temperature of the solid-liquid transition.

The subject of data set [1] is HCV genotype 1b Con-1 subgenomic replicon. In words: Anti-HCV luciferase assay, genotype 1b (Con1) subgenomic replicon in Huh5-2 cells. In kind it is cell-based, Hepatitis C virus. The conditions noted are these: for EC50: mean of three experiments; for HCV Replicon 1b SI50: CC50/EC50, Huh5-2 cells. The method, then:
(§1) All synthesized compounds were tested against HCV genotype 1b Con-1 subgenomic replicon in the Huh-5-2 stable cell line. Specifically, their activity against viral replication was estimated by measuring firefly luciferase, which is co-expressed by the bicistronic replicon, and their half-maximal effective concentrations (EC50) were determined. In parallel, the half-maximal cytotoxic concentrations (CC50) of the compounds were estimated, and their selective indexes (SI50: CC50/ EC50) were calculated. All novel synthesized compounds were active against HCV 1b with EC50 < 1 µM except for compound 4b (Table 3).
Huh5-2 [65] and Huh7-JFH1 [66] stable cell lines harbor the subgenomic HCV reporter replicon I389luc-ubi-neo/NS3-3′/Con1/5.1 (genotype 1b; strain Con1) and I389luc-ubi-neo/NS3-3′_dg_JFH1 (genotype 2a, JFH1 strain), respectively (kindly provided by R. Bartenschlager, Heidelberg University, Heidelberg, Germany). Huh7.5-3a and Huh7.5-4a stable cell lines harbor the subgenomic HCV reporter replicon S52-SG (Feo) (AII) (genotype 3a; S52 strain) and ED43-SG (Feo) (VYG) (genotype 4a; ED43 strain), respectively (viral constructs kindly provided by C.M. Rice, Rockefeller University, New York, NY, USA). These replicons carry as a first cistron firefly luciferase (F-Luc) and neomycin phosphotransferase genes under the translational control of the HCV internal ribosome entry site (IRES), followed by HCV NS3 to NS5B proteins under the control of the EMCV IRES.
The anti-HCV assay in replicon cells was performed by seeding 1 × 10^4 cells per well in a 96-well plate. After 24 h of incubation at 37 °C (5% CO2) and medium removal, serial dilutions of the test compounds in complete DMEM were added. Cells were lysed after 72 h, and F-Luc activity was measured. The anti-HCV assay for the full-length viral construct H77S.3/GLuc2A was performed after electroporation of Huh7-Lunet cells with viral RNA. Cells were seeded in 96-well plates, the medium was removed 24 h after electroporation, and serial dilutions of the compounds in complete DMEM were added. At 72 h post-treatment, cell supernatants were collected, and G-Luc activity was measured. In addition, the cells were lysed for total protein quantification.
Relative luminescence units (RLU) were expressed as a percentage of the respective units derived from DMSO-treated cells (control). The half-maximal effective concentration (EC50), defined as the concentration of compound that reduces luciferase signal by 50%, was calculated by dose-response curve analysis using Prism 5.0 software (GraphPad Software Inc., San Diego, CA, USA).
The F-Luc activity was measured using the Luciferase Assay System (Promega, Madison, WI, USA), as recommended by the manufacturer. The G-Luc activity was measured using 12 μM coelenterazine (Promega) in assay buffer (50 mM potassium phosphate, pH 7.4, 500 mM NaCl, 1 mM EDTA). Measurements were carried out using a GloMax 20/20 single tube luminometer (Promega) for 10 s. The F-Luc activity was normalized to the total protein amount determined using the Bradford assay reagent (Pierce, Waltham, MA, USA).

Data set [2] is described as follows: Cytotoxicity assay (intracellular ATP levels) in Huh5-2 replicon cells. In kind it is cell-based. As to conditions: human, Huh5-2 cells, read-out: HCV Replicon 1b CC50. How it is done:
as §1
Intracellular ATP levels were measured to determine the cytotoxicity of the compounds in the treated cells. In 96-well plates, 10^4 cells per well were seeded, incubated with serial dilutions of the compounds or DMSO as a control for 72 h at 37 °C (5% CO2) and lysed for ATP measurement. ATP levels were measured using the ViaLight HS BioAssay kit (Lonza, Basel, Switzerland) in a GloMax 20/20 single-tube luminometer (Promega) for 1 s, according to the manufacturer’s protocol. Values were normalized to total protein amounts and used to determine the compound concentration causing 50% cell death (CC50). Nonlinear regression analysis was performed using Prism 5.0 software (GraphPad Software Inc., San Diego, CA, USA).
For orientation: In antiviral work, replicon cells carry a viral genome segment that copies itself.

Where [3] appears, read: Hepatitis C virus, Huh-5-2, 72 h, read-out: HCV Replicon 1b EC50, Huh5-2 cells, Con1 strain, F-Luc, 72 h.
The mark [4] stands for this setting: Hepatitis C virus, Huh-5-2, 72 h, Huh5-2 cells, Con1 strain, F-Luc, 72 h, read-out: HCV Replicon 1b EC50.

Take `COC(=O)N[C@H](C(=O)N1CCC[C@H]1c1ncc(-c2cccc(C#CC#Cc3cccc(-c4cnc([C@@H]5CCCN5C(=O)[C@@H](NC(=O)OC)C(C)C)[nH]4)c3)c2)[nH]1)C(C)C` [Compound 1a, Dimethyl ((2S,2′S)-((2S,2′S)-((buta-1,3-diyne-1,4-diylbis(3,1-phenylene))bis(1H-imidazole-5,2-diyl))bis(pyrrolidine-2,1-diyl))bis(3-methyl-1-oxobutane-1,2diyl))dicarbamate]: the EC50 in data set [1] (setting [3]) came to 166 nM. Moreover, the cytotoxic concentration (CC50) at 72 h in data set [2] was over 100000 nM.
In the case of `COC(=O)N[C@H](C(=O)N1CCC[C@H]1c1ncc(-c2ccc(C#CC#Cc3ccc(-c4cnc([C@@H]5CCCN5C(=O)[C@@H](NC(=O)OC)C(C)C)[nH]4)cc3)cc2)[nH]1)C(C)C` [Compound 1b, Dimethyl ((2S,2′S)-((2S,2′S)-((buta-1,3-diyne-1,4-diylbis(4,1-phenylene))bis(1H-imidazole-5,2-diyl))bis(pyrrolidine-2,1-diyl))bis(3-methyl-1-oxobutane-1,2-diyl))dicarbamate], in data set [1], the “HCV Replicon 1b SI50” value is reported as over 1113.58. Also, in data set [1] (setting [4]), the EC50 is 89.8 nM. The CC50 at 72 h in data set [2] was over 100000 nM.
Molecule `COC(=O)N[C@@H](C(=O)N1CCC[C@H]1c1ncc(-c2cccc(C#CC#Cc3cccc(-c4cnc([C@@H]5CCCN5C(=O)[C@H](NC(=O)OC)C(C)C)[nH]4)c3)c2)[nH]1)C(C)C` [Compound 2a, Dimethyl ((2R,2′R)-((2S,2′S)-((buta-1,3-diyne-1,4-diylbis(3,1-phenylene))bis(1H-imidazole-5,2-diyl))bis(pyrrolidine-2,1-diyl))bis(3-methyl-1-oxobutane-1,2-diyl))dicarbamate] came in with a melting point of 103 to 105 °C. In addition, the “HCV Replicon 1b SI50” value in data set [1] is over 250.06. Moreover, the EC50 in data set [1] (setting [4]) was determined as 400 nM. Further, in data set [2], the CC50 at 72 h was over 100000 nM.
For the molecule `COC(=O)N[C@@H](C(=O)N1CCC[C@H]1c1ncc(-c2ccc(C#CC#Cc3ccc(-c4cnc([C@@H]5CCCN5C(=O)[C@H](NC(=O)OC)C(C)C)[nH]4)cc3)cc2)[nH]1)C(C)C` [Compound 2b, Dimethyl ((2R,2′R)-((2S,2′S)-((buta-1,3-diyne-1,4-diylbis(4,1-phenylene))bis(1H-imidazole-5,2-diyl))bis(pyrrolidine-2,1-diyl))bis(3-methyl-1-oxobutane-1,2-diyl))dicarbamate], the “HCV Replicon 1b SI50” value in data set [1] is over 248.20. For the same molecule, the EC50 in data set [1] (setting [4]) came out at 403 nM. For the same molecule, in data set [2], the CC50 at 72 h was over 100000 nM.
With `CCOC(=O)N[C@H](C(=O)N1CCC[C@H]1c1ncc(-c2cccc(C#CC#Cc3cccc(-c4cnc([C@@H]5CCCN5C(=O)[C@@H](NC(=O)OCC)C(C)C)[nH]4)c3)c2)[nH]1)C(C)C` [Compound 3a, Diethyl ((2S,2′S)-((2S,2′S)-((buta-1,3-diyne-1,4-diylbis(3,1-phenylene))bis(1H-imidazole-5,2-diyl))bis(pyrrolidine-2,1-diyl))bis(3-methyl-1-oxobutane-1,2-diyl))dicarbamate], the melting point fell in the range of 124 to 126.7 °C. Also, the “HCV Replicon 1b SI50” value in data set [1] was over 629.72. Moreover, the half-maximal effective concentration (EC50) in data set [1] (setting [4]) was 159 nM. Moreover, the CC50 at 72 h in data set [2] is over 100000 nM.
In turn, `CCOC(=O)N[C@H](C(=O)N1CCC[C@H]1c1ncc(-c2ccc(C#CC#Cc3ccc(-c4cnc([C@@H]5CCCN5C(=O)[C@@H](NC(=O)OCC)C(C)C)[nH]4)cc3)cc2)[nH]1)C(C)C` [Compound 3b, Diethyl ((2S,2′S)-((2S,2′S)-((buta-1,3-diyne-1,4-diylbis(4,1-phenylene))bis(1H-imidazole-5,2-diyl))bis(pyrrolidine-2,1-diyl))bis(3-methyl-1-oxobutane-1,2-diyl))dicarbamate] returned a melting point of 139 to 141 °C. For the same molecule, in data set [1], the “HCV Replicon 1b SI50” value is given as over 297.44. In addition, the EC50 in data set [1] (setting [4]) was found to be 336 nM. Moreover, the CC50 at 72 h in data set [2] was over 100000 nM.
As to `CCCCOC(=O)N[C@H](C(=O)N1CCC[C@H]1c1ncc(-c2cccc(C#CC#Cc3cccc(-c4cnc([C@@H]5CCCN5C(=O)[C@@H](NC(=O)OCCCC)C(C)C)[nH]4)c3)c2)[nH]1)C(C)C` [Compound 4a, Dibutyl ((2S,2′S)-((2S,2′S)-((buta-1,3-diyne-1,4-diylbis(3,1-phenylene))bis(1H-imidazole-5,2-diyl))bis(pyrrolidine-2,1-diyl))bis(3-methyl-1-oxobutane-1,2-diyl))dicarbamate], the “HCV Replicon 1b SI50” value in data set [1] is on record as over 110.89. The EC50 in data set [1] (setting [4]) was 902 nM. Besides, in data set [2], the CC50 at 72 h was over 100000 nM.
For the molecule `CCCCOC(=O)N[C@H](C(=O)N1CCC[C@H]1c1ncc(-c2ccc(C#CC#Cc3ccc(-c4cnc([C@@H]5CCCN5C(=O)[C@@H](NC(=O)OCCCC)C(C)C)[nH]4)cc3)cc2)[nH]1)C(C)C` [Compound 4b, Dibutyl ((2S,2′S)-((2S,2′S)-((buta-1,3-diyne-1,4-diylbis(4,1-phenylene))bis(1H-imidazole-5,2-diyl))bis(pyrrolidine-2,1-diyl))bis(3-methyl-1-oxobutane-1,2-diyl))dicarbamate], the melting point was 136 to 138 °C. Also, the EC50 in data set [1] (setting [4]) was over 1000 nM. Moreover, the CC50 at 72 h in data set [2] is over 100000 nM.
Molecule `COC(=O)N[C@@H](CC(C)C)C(=O)N1CCC[C@H]1c1ncc(-c2cccc(C#CC#Cc3cccc(-c4cnc([C@@H]5CCCN5C(=O)[C@H](CC(C)C)NC(=O)OC)[nH]4)c3)c2)[nH]1` [Compound 5a, Dimethyl ((2S,2′S)-((2S,2′S)-((buta-1,3-diyne-1,4-diylbis(3,1-phenylene))bis(1H-imidazole-5,2-diyl))bis(pyrrolidine-2,1-diyl))bis(4-methyl-1-oxopentane-1,2-diyl))dicarbamate] had a melting point of 103.1 to 105.3 °C. For the same molecule, the “HCV Replicon 1b SI50” value in data set [1] was over 879.51. In addition, in data set [1] (setting [4]), the EC50 is 114 nM. Moreover, in data set [2], the CC50 at 72 h was over 100000 nM.
With `CCOC(=O)N[C@@H](CC(C)C)C(=O)N1CCC[C@H]1c1ncc(-c2cccc(C#CC#Cc3cccc(-c4cnc([C@@H]5CCCN5C(=O)[C@H](CC(C)C)NC(=O)OCC)[nH]4)c3)c2)[nH]1` [Compound 7a, Diethyl ((2S,2′S)-((2S,2′S)-((buta-1,3-diyne-1,4-diylbis(3,1-phenylene))bis(1H-imidazole-5,2-diyl))bis(pyrrolidine-2,1-diyl))bis(4-methyl-1-oxopentane-1,2-diyl))dicarbamate], in data set [1], the “HCV Replicon 1b SI50” value is on record as over 1021.55. The EC50 in data set [1] (setting [3]) was 97.8 nM; in data set [1] (Huh5-2 cells, Con1 strain, F-Luc, 72 h, read-out: HCV Replicon 1b EC50), 97.9 nM. Also, the 50% cytotoxic concentration (CC50) at 72 h in data set [2] is over 100000 nM.
Take `COC(=O)N[C@H](C(=O)N1CCC[C@H]1c1ncc(-c2ccc(C#CC#Cc3ccc(-c4cnc([C@@H]5CCCN5C(=O)[C@@H](NC(=O)OC)c5ccccc5)[nH]4)cc3)cc2)[nH]1)c1ccccc1` [Compound 9b, Dimethyl ((1S,1′S)-((2S,2′S)-((buta-1,3-diyne-1,4-diylbis(4,1-phenylene))bis(1H-imidazole-5,2-diyl))bis(pyrrolidine-2,1-diyl))bis(2-oxo-1-phenylethane-2,1-diyl))dicarbamate]: in data set [1], the “HCV Replicon 1b SI50” value is recorded as over 542.59. The EC50 in data set [1] (setting [4]) came to 184 nM. In addition, in data set [2], the CC50 at 72 h was over 100000 nM.
In the same order, the values of `COC(=O)N[C@H](C(=O)N1CCC[C@H]1c1nc(-c2ccc(-c3ccc(-c4c[nH]c([C@@H]5CCCN5C(=O)[C@@H](NC(=O)OC)C(C)C)n4)cc3)cc2)c[nH]1)C(C)C` [Daclatasvir, reference compound] are 655,556, 0.027 nM and 17700 nM.
